Measured values taken from PubChem BioAssay (NCI).
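All cell lines were grown in 96-well plates and treated with compound for 48 hours. TGI: total growth inhibition.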

Tests used:
Experiment in all cases: growth of human tumour cells (NCI), 48 h
OVCAR-3 ovarian = tested on: OVCAR-3 ovarian
SK-MEL-5 melanoma = tested on: SK-MEL-5 melanoma
MDA-MB-435 = tested on: MDA-MB-435
HOP-92 NSCLC = tested on: HOP-92 NSCLC
SNB-75 CNS = tested on: SNB-75 CNS
PC-3 prostate = tested on: PC-3 prostate
T-47D breast = tested on: T-47D breast
KM12 colon = tested on: KM12 colon
OVCAR-5 ovarian = tested on: OVCAR-5 ovarian
ACHN renal = tested on: ACHN renal
UO-31 renal = tested on: UO-31 renal
LOX IMVI melanoma = tested on: LOX IMVI melanoma
U251 CNS = tested on: U251 CNS
OVCAR-8 ovarian = tested on: OVCAR-8 ovarian
A498 renal = tested on: A498 renal
A549 NSCLC = tested on: A549 NSCLC
MOLT-4 leukemia = tested on: MOLT-4 leukemia
SK-MEL-28 melanoma = tested on: SK-MEL-28 melanoma
SN12C renal = tested on: SN12C renal
K-562 leukemia = tested on: K-562 leukemia
RXF 393 renal = tested on: RXF 393 renal
HT29 colon = tested on: HT29 colon
SNB-19 CNS = tested on: SNB-19 CNS
NCI-H226 lung = tested on: NCI-H226 lung
OVCAR-4 ovarian = tested on: OVCAR-4 ovarian
SF-295 CNS = tested on: SF-295 CNS
CAKI-1 renal = tested on: CAKI-1 renal
NCI-H23 lung = tested on: NCI-H23 lung
SK-MEL-2 melanoma = tested on: SK-MEL-2 melanoma
IGROV1 ovarian = tested on: IGROV1 ovarian
HCT-116 colon = tested on: HCT-116 colon
SK-OV-3 ovarian = tested on: SK-OV-3 ovarian
SR leukemia = tested on: SR leukemia
MDA-N = tested on: MDA-N
MCF7 breast = tested on: MCF7 breast
NCI-H460 lung = tested on: NCI-H460 lung
EKVX NSCLC = tested on: EKVX NSCLC
BT-549 breast = tested on: BT-549 breast
HL-60(TB) leukemia = tested on: HL-60(TB) leukemia
DU-145 prostate = tested on: DU-145 prostate
MDA-MB-231 breast = tested on: MDA-MB-231 breast
HCC-2998 colon = tested on: HCC-2998 colon
HCT-15 colon = tested on: HCT-15 colon
NCI/ADR-RES ovarian = tested on: NCI/ADR-RES ovarian
CCRF-CEM leukemia = tested on: CCRF-CEM leukemia
M14 melanoma = tested on: M14 melanoma
786-0 renal = tested on: 786-0 renal
UACC-62 melanoma = tested on: UACC-62 melanoma
COLO 205 colon = tested on: COLO 205 colon
SF-268 CNS = tested on: SF-268 CNS
SF-539 CNS = tested on: SF-539 CNS
NCI-H522 lung = tested on: NCI-H522 lung
TK-10 renal = tested on: TK-10 renal
SW-620 colon = tested on: SW-620 colon
UACC-257 melanoma = tested on: UACC-257 melanoma
HOP-62 NSCLC = tested on: HOP-62 NSCLC
HS 578T breast = tested on: HS 578T breast
RPMI-8226 leukemia = tested on: RPMI-8226 leukemia
MALME-3M melanoma = tested on: MALME-3M melanoma

## COC(=O)c1ccccc1NC(=NC1CCCCCC1)NS(=O)(=O)c1ccc(C)cc1
OVCAR-3 ovarian
  TGI: > 100 µM
SK-MEL-5 melanoma
  TGI: > 100 µM
MDA-MB-435
  TGI: > 100 µM
HOP-92 NSCLC
  TGI: > 100 µM
SNB-75 CNS
  TGI: > 100 µM
PC-3 prostate
  TGI: > 100 µM
T-47D breast
  TGI: > 100 µM
KM12 colon
  TGI: > 100 µM
OVCAR-5 ovarian
  TGI: > 100 µM
ACHN renal
  TGI: > 100 µM
UO-31 renal
  TGI: > 100 µM
LOX IMVI melanoma
  TGI: > 100 µM
U251 CNS
  TGI: > 100 µM
OVCAR-8 ovarian
  TGI: > 100 µM
A498 renal
  TGI: > 100 µM
A549 NSCLC
  TGI: > 100 µM
MOLT-4 leukemia
  TGI: > 100 µM
SK-MEL-28 melanoma
  TGI: > 100 µM
SN12C renal
  TGI: > 100 µM
K-562 leukemia
  TGI: > 100 µM
RXF 393 renal
  TGI: > 100 µM
HT29 colon
  TGI: > 100 µM
SNB-19 CNS
  TGI: > 100 µM
NCI-H226 lung
  TGI: > 100 µM
OVCAR-4 ovarian
  TGI: > 100 µM
SF-295 CNS
  TGI: > 100 µM
CAKI-1 renal
  TGI: > 100 µM
NCI-H23 lung
  TGI: > 100 µM
SK-MEL-2 melanoma
  TGI: > 100 µM
IGROV1 ovarian
  TGI: > 100 µM
HCT-116 colon
  TGI: > 100 µM
SK-OV-3 ovarian
  TGI: > 100 µM
SR leukemia
  TGI: > 100 µM
MDA-N
  TGI: > 100 µM
MCF7 breast
  TGI: > 100 µM
NCI-H460 lung
  TGI: > 100 µM
EKVX NSCLC
  TGI: > 100 µM
BT-549 breast
  TGI: > 100 µM
HL-60(TB) leukemia
  TGI: > 100 µM
DU-145 prostate
  TGI: > 100 µM
MDA-MB-231 breast
  TGI: > 100 µM
HCC-2998 colon
  TGI: > 100 µM
HCT-15 colon
  TGI: > 100 µM
NCI/ADR-RES ovarian
  TGI: > 100 µM
CCRF-CEM leukemia
  TGI: > 100 µM
M14 melanoma
  TGI: > 100 µM
786-0 renal
  TGI: > 100 µM
UACC-62 melanoma
  TGI: > 100 µM
COLO 205 colon
  TGI: > 100 µM
SF-268 CNS
  TGI: > 100 µM
SF-539 CNS
  TGI: > 100 µM
NCI-H522 lung
  TGI: > 100 µM
TK-10 renal
  TGI: > 100 µM
SW-620 colon
  TGI: > 100 µM
UACC-257 melanoma
  TGI: > 100 µM
HOP-62 NSCLC
  TGI: > 100 µM
HS 578T breast
  TGI: > 100 µM
RPMI-8226 leukemia
  TGI: > 100 µM

## O[C@H]1[C@H](O)[C@@H](O)[C@@]2(O)CC[C@@H]1N2
OVCAR-3 ovarian
  TGI: > 100 µM
SK-MEL-5 melanoma
  TGI: > 100 µM
MDA-MB-435
  TGI: > 100 µM
HOP-92 NSCLC
  TGI: > 100 µM
SNB-75 CNS
  TGI: > 100 µM
PC-3 prostate
  TGI: > 100 µM
T-47D breast
  TGI: > 100 µM
KM12 colon
  TGI: > 100 µM
OVCAR-5 ovarian
  TGI: > 100 µM
ACHN renal
  TGI: > 100 µM
UO-31 renal
  TGI: > 100 µM
LOX IMVI melanoma
  TGI: > 100 µM
U251 CNS
  TGI: > 100 µM
OVCAR-8 ovarian
  TGI: > 100 µM
A498 renal
  TGI: > 100 µM
A549 NSCLC
  TGI: > 100 µM
MOLT-4 leukemia
  TGI: > 100 µM
SK-MEL-28 melanoma
  TGI: > 100 µM
SN12C renal
  TGI: > 100 µM
K-562 leukemia
  TGI: > 100 µM
RXF 393 renal
  TGI: > 100 µM
HT29 colon
  TGI: > 100 µM
SNB-19 CNS
  TGI: > 100 µM
NCI-H226 lung
  TGI: > 100 µM
OVCAR-4 ovarian
  TGI: > 100 µM
SF-295 CNS
  TGI: > 100 µM
CAKI-1 renal
  TGI: > 100 µM
NCI-H23 lung
  TGI: > 100 µM
MALME-3M melanoma
  TGI: > 100 µM
SK-MEL-2 melanoma
  TGI: > 100 µM
IGROV1 ovarian
  TGI: > 100 µM
HCT-116 colon
  TGI: > 100 µM
SK-OV-3 ovarian
  TGI: > 100 µM
SR leukemia
  TGI: > 100 µM
MDA-N
  TGI: > 100 µM
MCF7 breast
  TGI: > 100 µM
NCI-H460 lung
  TGI: > 100 µM
EKVX NSCLC
  TGI: > 100 µM
BT-549 breast
  TGI: > 100 µM
DU-145 prostate
  TGI: > 100 µM
MDA-MB-231 breast
  TGI: > 100 µM
HCC-2998 colon
  TGI: > 100 µM
HCT-15 colon
  TGI: > 100 µM
NCI/ADR-RES ovarian
  TGI: > 100 µM
CCRF-CEM leukemia
  TGI: > 100 µM
M14 melanoma
  TGI: > 100 µM
786-0 renal
  TGI: > 100 µM
UACC-62 melanoma
  TGI: > 100 µM
COLO 205 colon
  TGI: > 100 µM
SF-268 CNS
  TGI: > 100 µM
SF-539 CNS
  TGI: > 100 µM
NCI-H522 lung
  TGI: > 100 µM
TK-10 renal
  TGI: > 100 µM
SW-620 colon
  TGI: > 100 µM
UACC-257 melanoma
  TGI: > 100 µM
HOP-62 NSCLC
  TGI: > 100 µM
HS 578T breast
  TGI: > 100 µM
RPMI-8226 leukemia
  TGI: > 52.4 µM
